Laboratory results taken from patent publication US6518005B2, “Silver halide multilayer color photographic material” (Ferrania, S.p.A., priority 2000, dated 2003).

Assays:
[1] = Absorption of methanol solutions of the dyes (λmax and density at 400, 450, 500 nm); assay type: physicochemical; settings: for D400: density measured at 400 nm; for D400 / D450 / D500: methanol solution with density 0.6 at λmax; for D450: density measured at 450 nm; for D500: density measured at 500 nm; for λmax (nm): methanol solution, density 0.6 at λmax; for spectral region absorbed (in words): methanol solutions, from the data of Table 1
[2] = Solubility in tricresylphosphate and crystallization tendency on cooling; assay type: physicochemical; settings: for Solubility: in tricresylphosphate, under stirring at 60° C.; for Not-to-Crystallize Tendency: tricresylphosphate solution cooled at room temperature
Procedure: The compounds shown in Table 2 were added with a quantity of tricresylphosphate under stirring at 60° C. up to obtain a limpid solution. The samples were then cooled at room temperature and the crystallization tendency thereof was evaluated.

| D400 [1] | D450 [1] | D500 [1] | λmax (nm) [1] [nm] | spectral region absorbed (in words) ([1]; listed as Sample 12) | Solubility [2] | Not-to-Crystallize Tendency [2] | spectral region absorbed (in words) ([1]; listed as Sample 11) | Compound | spectral region absorbed (in words) [1] | Not-to-Crystallize Tendency ([2]; listed as Sample 7) |
| --- | --- | --- | --- | --- | --- | --- | --- | --- | --- | --- |
| 0.44 | 0.22 | 0.00 | 420 | – | – | – | – | CCOC(=O)CCn1cccc1/C=C1\C(=O)ON=C1c1ccc(OC)cc1 [Compound I-4] | – | – |
| 0.47 | 0.21 | 0.00 | 419 | – | – | – | – | CCOC(=O)Cn1cccc1/C=C1\C(=O)ON=C1c1ccc(OC)cc1 [Compound I-5] | – | – |
| 0.41 | 0.24 | 0.00 | 421 | – | – | – | – | C=CCn1cccc1/C=C1\C(=O)ON=C1c1ccc(NS(=O)(=O)CCCC)cc1 [Compound I-2] | – | – |
| 0.42 | 0.03 | 0.00 | 423 | – | – | good | – | CCCCS(=O)(=O)Nc1ccc(C2=NOC(=O)/C2=C\c2cccn2C(CC)C(=O)OCCOCC)cc1 (centres unmarked) [Compound I-7] | – | do not exhibit any tendency to crystallize |
| 0.52 | 0.17 | 0.00 | 415 | – | – | – | – | C=CCn1cccc1/C=C1\C(=O)ON=C1C(C)(C)C [Compound I-6] | – | – |
| 0.48 | 0.08 | 0.00 | 418 | – | – | – | – | COc1ccc(C2=NOC(=O)/C2=C\c2ccc[nH]2)cc1 [Compound I-3] | – | – |

Further lines, the compound ahead of its results:

| Compound | D400 [1] | D450 [1] | D500 [1] | λmax (nm) [1] [nm] | spectral region absorbed (in words) ([1]; listed as Sample 12) | Solubility [2] | Not-to-Crystallize Tendency [2] | spectral region absorbed (in words) ([1]; listed as Sample 11) | spectral region absorbed (in words) [1] | Not-to-Crystallize Tendency ([2]; listed as Sample 7) |
| --- | --- | --- | --- | --- | --- | --- | --- | --- | --- | --- |
| CCCCS(=O)(=O)Nc1ccc(C2=NOC(=O)/C2=C\C2CN(CCC(=O)OCC)c3ccccc32)cc1 (centres unmarked) [D] | 0.35 | 0.00 | 0.00 | 374 | mainly absorb in the ultraviolet | – | – | – | – | – |
| CCCCS(=O)(=O)Nc1ccc(C2=NOC(=O)/C2=C\C2CN(CCC(=O)OCC)c3ccccc32)cc1 (single isomer, unassigned) [B] | 0.09 | 0.53 | 0.10 | 463 | – | – | – | – | mainly absorb in the blue region, but that the green region (500-600 nm) is also interested | – |
| CCCCS(=O)(=O)Nc1ccc(C2=NOC(=O)/C2=C\C2CN(CCC(=O)OCC)c3ccccc32)cc1 (centres unmarked) [F] | 0.28 | 0.54 | 0.00 | 437 | – | good | not good | – | – | – |
| CCCCS(=O)(=O)Nc1ccc(C2=NOC(=O)/C2=C\C2CN(CCC(=O)OCC)c3ccccc32)cc1 (centres unmarked) [Compound G] | 0.27 | 0.55 | 0.00 | 438 | – | good | not good | – | – | – |
| CCCCS(=O)(=O)Nc1ccc(C2=NOC(=O)/C2=C\C2CN(CCC(=O)OCC)c3ccccc32)cc1 (centres unmarked) [C] | 0.45 | 0.03 | 0.00 | 377 | – | – | – | mainly absorb in the ultraviolet | – | – |
| CCCCS(=O)(=O)Nc1ccc(C2=NOC(=O)/C2=C\C2CN(CCC(=O)OCC)c3ccccc32)cc1 (centres unmarked) [E] | 0.26 | 0.50 | 0.00 | 437 | – | good | not good | – | – | – |
